According to patent publication US6512000B1, “Aminocarbonyl-substituted benzimidazoles having tryptase-inhibitory activity” (Boehringer Ingelheim Pharma KG, priority 1999, dated 2003):
Counter-ions that a name gives are not always drawn.

Biological target: T1, rh beta tryptase (Homo sapiens, UniProt P20231)
T1 construct: purchased Promega
Assay: Tryptase inhibition test (cleavage of N-p-tosyl-Gly-Pro-Lys-para-nitroaniline, p-nitroaniline measured at 405 nm)
Assay type: biochemical
Conditions: pH 7.4, 37° C.; for IC50: concentration at which 50% of the tryptase enzyme activity is inhibited, substrate 0.6 mM
Protocol: The compounds according to the invention are characterised by their tryptase-inhibiting activity. This ability to inhibit tryptase was investigated using the test described below.
The measurement is carried out in Tris HCl buffer (100 mM), which additionally contains calcium (5 mM) and heparin ([…]), at pH 7.4. The standard used is rh beta tryptase which may be obtained commercially from Promega, for example. The substrate used is N-p-tosyl-Gly-Pro-Lys-para-nitroaniline in a concentration of 0.6 mM. The substrate is digested with tryptase to form p-nitroaniline which can be measured at 405 nm. Usually, an incubation period of 5 minutes and an incubation temperature of 37° C. are chosen. The enzyme activity used is 0.91 U/ml. The measurements are carried out in an Autoanalyser (Cobas Bio) made by Hofmann LaRoche. The potential inhibitory substances are used in concentrations of 10 μM in the screening, the inhibition of the tryptase being given in percent. The IC50 is determined at over 70% inhibition (concentration at which 50% of the enzyme activity is inhibited). After 5 minutes' pre-incubation of the potential inhibitory substances, the substrate is added to start the reaction, the formation of p-nitroaniline being taken as a measurement of the enzyme activity after 5 minutes, after testing the linearity.
The data obtained after the above test has been carried out (% inhibition) are assembled in Table 25 for the compounds according to the invention. The IC50 values obtained for the compounds according to the invention can be found in Table 26.
Table 26 contains the IC50 binding values obtained for the compounds according to the invention. These were measured as described above.

T1 sequence (P20231 31-275): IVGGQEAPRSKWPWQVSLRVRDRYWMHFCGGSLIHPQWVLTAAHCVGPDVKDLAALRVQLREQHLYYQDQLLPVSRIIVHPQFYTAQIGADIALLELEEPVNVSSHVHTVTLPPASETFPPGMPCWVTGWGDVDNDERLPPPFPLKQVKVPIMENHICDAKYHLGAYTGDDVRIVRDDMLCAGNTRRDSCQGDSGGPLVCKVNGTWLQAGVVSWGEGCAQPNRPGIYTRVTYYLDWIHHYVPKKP

Row | Molecule | % Inhibition (10 μM) (inhibition of rh beta tryptase at 10 μM test substance, substrate N-p-tosyl-Gly-Pro-Lys-para-nitroaniline 0.6 mM, 5 minutes) [%] | IC50 [nM]
1 | 2-[2-(4-amidinophenyl)ethyl]-1-{3-[4-(2-methylphenyl)-piperazin-1-yl]-propyl}-benzimidazol-5-yl-carboxylic acid-N-[4-(amino-methyl)-benzyl]-N-(3-pyridyl)-amide [Example 144] | 54 | 
2 | CN(Cc1cccnc1)C(=O)c1ccc2c(c1)nc(CCc1ccc(C(=N)N)cc1)n2C [Example 1, 2-[2-(4-Amidinophenyl)ethyl]-1-methyl-benzimidazol-5-yl-carboxylic Acid-N-(pyridin-3-yl-methyl)-N-methyl-amide-hydrochloride] |  | 887
3 | CN(C)CCN(C)C(=O)c1ccc2c(c1)nc(CCc1ccc(C(=N)N)cc1)n2C [Example 3, 2-[2-(4-Amidinophenyl)-ethyl]1l-methyl-benzimidazol-5-yl-carboxylic Acid-N-[2-(N,N-dimethylamino)-ethyl]-N-methyl-amide-dihydrochlonide] |  | 660
4 | CN(Cc1ccc(C(=N)N)cc1)C(=O)c1ccc2c(c1)nc(CCc1ccc(C(=N)N)cc1)n2C [Example 4, 2-[2-(4-Amidinophenyl)-ethyl]-1-methyl-benzimidazol-5-yl-carboxylic Acid-N-(4-amidino-benzyl)-N-methyl-amide-trihydrochloride] |  | 81
5 | CCOC(=O)CN(Cc1ccc(C(=N)N)cc1)C(=O)c1ccc2c(c1)nc(CCc1ccc(C(=N)N)cc1)n2C [Example 5, 2-[2-(4-Amidinophenyl)-ethyl]-1-methyl-benzimidazol-5-yl-carboxylic Acid-N-(4-amidino-benzyl)-N-ethoxycarbonylmethyl-amide-dihydrochloride] |  | 245
6 | CN(Cc1ccc(N(C)C)cc1)C(=O)c1ccc2c(c1)nc(CCc1ccc(C(=N)N)cc1)n2C [Example 6, 2-[2-(4-Amidinophenyl)-ethyl]-1-methyl-benzimidazol-5-yl-carboxylic Acid-N-(4-dimethylaminobenzyl)-N-methyl-amide-hydrochloride] |  | 571
7 | CN(CCC(=N)N)C(=O)c1ccc2c(c1)nc(CCc1ccc(C(=N)N)cc1)n2C [Example 7, 2-[2-(4-Amidinophenyl)-ethyl]-1-methyl-benzimidazol-5-yl-carboxylic Acid-N-(2-amidinoethyl)-N-methyl-amide-dihydrochloride] |  | 670
8 | Cn1c(CCc2ccc(C(=N)N)cc2)nc2cc(C(=O)N(CCC(=N)N)Cc3cnc4ccccc4c3)ccc21 [Example 8, 2-[2-(4-Amidinophenyl)-ethyl]-1-methyl-benzimidazol-5-yl-carboxylic Acid-N-(2-amidinoethyl)-N-(quinolin-3-yl-methyl)-amide-dihydrochloride] |  | 201
9 | Cn1c(CCc2ccc(C(=N)N)cc2)nc2cc(C(=O)N(CCC(=N)N)Cc3ccccc3)ccc21 [Example 9, 2-[2-(4-Amidinophenyl)-ethyl]-1-methyl-benzimidazol-5-yl-carboxylic Acid-N-(2-amidinoethyl)-N-benzyl-amide-dihydrochloride] |  | 140
10 | Cn1c(CCc2ccc(C(=N)N)cc2)nc2cc(C(=O)N(CCC(=N)N)Cc3cccnc3)ccc21 [Example 10, 2-[2-(4-Amidinophenyl)-ethyl]-1-methyl-benzimidazol-5-yl-carboxylic Acid-N-(2-amidinoethyl)-N-(3-pyridylmethyl)-amide-dihydrochloride] |  | 316
11 | CC(C)CN(CCC(=N)N)C(=O)c1ccc2c(c1)nc(CCc1ccc(C(=N)N)cc1)n2C [Example 11, 2-[2-(4-Amidinophenyl)-ethyl]-1-methyl-benzimidazol-5-yl-carboxylic Acid-N-(2-amidinoethyl)-N-iso-butyl-amide-dihydrochloride] |  | 86
12 | Cn1c(CCc2ccc(C(=N)N)cc2)nc2cc(C(=O)NCCCc3ccccc3)ccc21 [Example 12, 2-[2-(4-Amidinophenyl)-ethyl]-1-methyl-benzimidazol-5-yl-carboxylic Acid-N-(3-phenylpropyl)-amide-hydrochloride] |  | 479
13 | Cc1ccccc1N1CCCN(C(=O)c2ccc3c(c2)nc(CCc2ccc(C(=N)N)cc2)n3C)CC1 [Example 15, 2-[2-(4-Amidinophenyl)-ethyl]-1-methyl-benzimidazol-5-yl-carboxylic Acid-[N′-(2-methyl-phenyl)-diazepide]-hydrochloride] |  | 98
14 | Cn1c(CCc2ccc(C(=N)N)cc2)nc2cc(C(=O)N(CCCc3ccccc3)Cc3ccc(C(=N)N)cc3)ccc21 [Example 16, 2-[2-(4-Amidinophenyl)-ethyl]-1-methyl-benzimidazol-5-yl-carboxylic Acid-N-(4-amidinobenzyl)-N-(3-phenylpropyl)-amide-dihydrochloride] |  | 154
15 | Cn1c(CCc2ccc(C(=N)N)cc2)nc2cc(C(=O)N(CCC(c3ccccc3)c3ccccc3)Cc3ccc(C(=N)N)cc3)ccc21 [Example 17, 2-[2-(4-Amidinophenyl)-ethyl]-1-methyl-benzimidazol-5-yl-carboxylic Acid-N-(4-amidinobenzyl)-N-(3,3-diphenylpropyl)-amide-dihydrochloride] |  | 107
16 | CN(C(=O)c1ccc2c(c1)nc(CCc1ccc(C(=N)N)cc1)n2C)c1cccnc1 [Example 18, 2-[2-(4-Amidinophenyl)-ethyl]-1-methyl-benzimidazol-5-yl-carboxylic Acid-N-methyl-N-(3-pyridyl)-amide-hydrochloride] |  | 312
17 | Cn1c(CCc2ccc(C(=N)N)cc2)nc2cc(C(=O)N(CCN(Cc3ccccc3)Cc3ccccc3)c3ccccc3)ccc21 [Example 19] |  | 32
18 | Cn1c(CCc2ccc(C(=N)N)cc2)nc2cc(C(=O)N(CCC(=N)N)c3ccc4ccccc4c3)ccc21 [Example 20, 2-[2-(4-Amidinophenyl)-ethyl]-1-methyl-benzimidazol-5-yl-carboxylic Acid-N-(2-amidinoethyl)-N-(2-naphthyl)-amide-dihydrochloride] |  | 310
19 | Cn1c(CCc2ccc(C(=N)N)cc2)nc2cc(C(=O)N(CCC(=N)N)c3ccccc3)ccc21 [Example 21, 2-[2-(4-Amidinophenyl)-ethyl]-1-methyl-benzimidazol-5-yl-carboxylic Acid-N-(2-amidinoethyl)-N-phenyl-amide-dihydrochloride] |  | 51
20 | CCc1cccc(N(CCC(=N)N)C(=O)c2ccc3c(c2)nc(CCc2ccc(C(=N)N)cc2)n3C)c1 [Example 22, 2-[2-(4-Amidinophenyl)-ethyl]-1-methyl-benzimidazol-5-yl-carboxylic Acid-N-(2-amidinoethyl)-N-(3-ethyl-phenyl)-amide-dihydrochloride] |  | 56
21 | Cn1c(CCc2ccc(C(=N)N)cc2)nc2cc(C(=O)N(CCC(=N)N)c3cccc(Oc4ccccc4)c3)ccc21 [Example 23, 2-[2-(4-Amidinophenyl)-ethyl]-1-methyl-benzimidazol-5-yl-carboxylic Acid-N-(2-amidinoethyl)-N-(3-phenoxy-phenyl)-amide-dihydrochloride] |  | 49
22 | Cn1c(CCc2ccc(C(=N)N)cc2)nc2cc(C(=O)N(CCC(=N)N)CCc3ccccc3)ccc21 [Example 24, 2-[2-(4-Amidinophenyl)-ethyl]-1-methyl-benzimidazol-5-yl-carboxylic Acid-N-(2-amidinoethyl)-N-(2-phenylethyl)-amide-dihydrochloride] |  | 16
23 | Cn1c(CCc2ccc(C(=N)N)cc2)nc2cc(C(=O)N(CCC(=N)N)C3CCCCCCC3)ccc21 [Example 25, 2-[2-(4-Amidinophenyl)-ethyl]-1-methyl-benzimidazol-5-yl-carboxylic Acid-N-(2-amidinoethyl)-N-cyclooctyl-amide-dihydrochloride] |  | 55
24 | Cc1ccc(N(CCC(=N)N)C(=O)c2ccc3c(c2)nc(CCc2ccc(C(=N)N)cc2)n3C)cc1 [Example 26, 2-[2-(4-Amidinophenyl)-ethyl]-1-methyl-benzimidazol-5-yl-carboxylic Acid-N-(2-amidinoethyl)-N-(4-methyl-phenyl)-amide-dihydrochloride] |  | 168
25 | CC(C)N(CCC(=N)N)C(=O)c1ccc2c(c1)nc(CCc1ccc(C(=N)N)cc1)n2C [Example 27, 2-[2-(4-Amidinophenyl)-ethyl]-1-methyl-benzimidazol-5-yl-carboxylic Acid-N-(2-amidinoethyl)-N-iso-propyl-amide-dihydrochloride] |  | 153
26 | CCOC(=O)C(Cc1ccc(C(=N)N)cc1)N(C)C(=O)c1ccc2c(c1)nc(CCc1ccc(C(=N)N)cc1)n2C (stereo not drawn) [Example 29, Ethyl 2-{2-[2-(4-Amidinophenyl)-ethyl]-1-methyl-benzimidazol-5-yl-carbonyl-(methylamino)}-3-(4-amidinophenyl)-propionate-formate] |  | 158
27 | Cn1c(CCc2ccc(C(=N)N)cc2)nc2cc(C(=O)N(CCNCc3ccccc3)C3CCCCC3)ccc21 [Example 36, 2-[2-(4-Amidinophenyl)-ethyl]-1-methyl-benzimidazol-5-yl-carboxylic Acid-[N-(2-(N′-benzylamino)-ethyl)-N-cyclohexyl-amide]-dihydrochloride] |  | 67
